According to US9738634B2, “Heterocyclic amide compound and herbicide” (SYNGENTA PARTICIPATIONS AG, priority 2013, dated 2017):

Assays:
Format in all cases: in vivo
barnyard grass [1] = experiment: Test Example 2: weedkilling efficacy, growth period weed treatment in the submerged state; A: barnyard grass
Method: (§1) Weedkilling efficacy test on growth period weed treatment in the submerged state
(§2) Alluvial soil was introduced into 1/10,000 Are Wagner pots, and 4 cm depth submerged conditions were created by addition of water and mixing. Seeds of barnyard grass, bulrush and oval-leafed pondweed were mixed and sown into the aforesaid cups, and the plants were grown by placing in a greenhouse at 25 to 30° C. When the barnyard grass, bulrush and oval-leafed pondweed had reached the 1-2 leaf stage, emulsions of compounds of the present invention prepared according to compounding example 2 were diluted with water to give the specified dosages and applied onto the water surface. 3 weeks after the pesticide treatment the effect on each type of plant was investigated on the basis of the assessment criteria of test example 1.
(§3) A: barnyard grass, B: bulrush, C: oval-leafed pondweed, D: crabgrass, E: green foxtail, F: barnyard grass, G: wild oat, H: black-grass, I: Italian ryegrass, J: common wind-grass, K: Indian mallow, L: redroot pigweed, M: fig-leafed goosefoot, N: chickweed, O: catchweed, p: birds-eye speedwell, a: transplanted rice, b: directly sown rice, c: corn, d: soybean, e: wheat, f: beet, g: rapeseed
(§4) Further, pesticide dosage (g/ha) indicates the concentration regulated such that treatment was with only the stated number of grams (g), when calculated per hectare (ha).

bulrush [2] = experiment: Test Example 2: weedkilling efficacy, growth period weed treatment in the submerged state; B: bulrush
Method: as §1, §2, §3, §4

barnyard grass [3] = experiment: Test Example 1: weedkilling efficacy, preemergent weed treatment in the submerged state; A: barnyard grass
Summary of the method: (§5)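 Visual scores against set criteria were taken 3 weeks after treatment. Compounds, as diluted emulsions at specified g/ha, went onto the water surface of 4 cm-flooded alluvial soil pots on the day weeds were sown and 2.5-leaf rice was transplanted; greenhouse held 25–30 °C.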

oval-leafed pondweed [4] = experiment: Test Example 2: weedkilling efficacy, growth period weed treatment in the submerged state; C: oval-leafed pondweed
Method: as §1, §2, §3, §4

oval-leafed pondweed [5] = experiment: Test Example 1: weedkilling efficacy, preemergent weed treatment in the submerged state; C: oval-leafed pondweed
Summary of the method: as §5

transplanted rice = experiment: Test Example 1: preemergent weed treatment in the submerged state, effect on crop; a: transplanted rice
Summary of the method: as §5

bulrush [6] = experiment: Test Example 1: weedkilling efficacy, preemergent weed treatment in the submerged state; B: bulrush
Summary of the method: as §5

Compound | A (barnyard grass) weedkilling efficacy grade (barnyard grass [1]; treatment dosage 252 g/ha) | B (bulrush) weedkilling efficacy grade (bulrush [2]; treatment dosage 252 g/ha) | A: barnyard grass, weed kill grade (barnyard grass [3]; treatment dosage 252 g/ha) | C (oval-leafed pondweed) weedkilling efficacy grade (oval-leafed pondweed [4]; treatment dosage 252 g/ha) | C: oval-leafed pondweed, weed kill grade (oval-leafed pondweed [5]; treatment dosage 252 g/ha) | a: transplanted rice, effect on crop grade (transplanted rice; treatment dosage 252 g/ha) | B: bulrush, weed kill grade (bulrush [6]; treatment dosage 252 g/ha) | A (barnyard grass) weedkilling efficacy grade (barnyard grass [3]; treatment dosage 252 g/ha) | C (oval-leafed pondweed) weedkilling efficacy grade (oval-leafed pondweed [5]; treatment dosage 252 g/ha) | a (transplanted rice) effect on crop grade (transplanted rice; treatment dosage 252 g/ha) | B (bulrush) weedkilling efficacy grade (bulrush [6]; treatment dosage 252 g/ha) | A (barnyard grass) weedkilling efficacy grade (barnyard grass [1]; treatment dosage 1000 g/ha) | B (bulrush) weedkilling efficacy grade (bulrush [2]; treatment dosage 1000 g/ha) | A: barnyard grass, weed kill grade (barnyard grass [3]; treatment dosage 1000 g/ha) | C (oval-leafed pondweed) weedkilling efficacy grade (oval-leafed pondweed [4]; treatment dosage 1000 g/ha) | C: oval-leafed pondweed, weed kill grade (oval-leafed pondweed [5]; treatment dosage 1000 g/ha) | a: transplanted rice, effect on crop grade (transplanted rice; treatment dosage 1000 g/ha) | B: bulrush, weed kill grade (bulrush [6]; treatment dosage 1000 g/ha)
CC(C)(C(=O)Nc1cc(C2CC2)ccn1)N1COCN(c2ccccc2)C1=O [A-2-45] | 4 (weed kill ratio 70% or more, less than 90%) | 4 (weed kill ratio 70% or more, less than 90%) | 5 (weed kill ratio 90% or more, (practically complete withering)) | 3 (weed kill ratio 40% or more, less than 70%) | 5 (weed kill ratio 90% or more, (practically complete withering)) | 0 (weed kill ratio 5% or less (practically no effect)) | 5 (weed kill ratio 90% or more, (practically complete withering)) | – | – | – | – | – | – | – | – | – | – | –
CC(C)(C(=O)Nc1cc(Cl)cc(Cl)n1)N1COCN(c2c(F)cccc2F)C1=O [A-6-01] | 5 (weed kill ratio 90% or more, (practically complete withering)) | 5 (weed kill ratio 90% or more, (practically complete withering)) | 5 (weed kill ratio 90% or more, (practically complete withering)) | 5 (weed kill ratio 90% or more, (practically complete withering)) | 5 (weed kill ratio 90% or more, (practically complete withering)) | 3 (weed kill ratio 40% or more, less than 70%) | 5 (weed kill ratio 90% or more, (practically complete withering)) | – | – | – | – | – | – | – | – | – | – | –
CC(C)(C(=O)Nc1cccc(-c2ccccc2)n1)N1COCN(c2ccccc2)C1=O [A-2-50] | 4 (weed kill ratio 70% or more, less than 90%) | 4 (weed kill ratio 70% or more, less than 90%) | 5 (weed kill ratio 90% or more, (practically complete withering)) | 3 (weed kill ratio 40% or more, less than 70%) | 5 (weed kill ratio 90% or more, (practically complete withering)) | 0 (weed kill ratio 5% or less (practically no effect)) | 5 (weed kill ratio 90% or more, (practically complete withering)) | – | – | – | – | – | – | – | – | – | – | –
CC(C)(C(=O)Nc1cc(Br)cnc1F)N1COCN(c2ccccc2)C1=O [A-3-04] | 5 (weed kill ratio 90% or more, (practically complete withering)) | 5 (weed kill ratio 90% or more, (practically complete withering)) | 5 (weed kill ratio 90% or more, (practically complete withering)) | 3 (weed kill ratio 40% or more, less than 70%) | 5 (weed kill ratio 90% or more, (practically complete withering)) | 3 (weed kill ratio 40% or more, less than 70%) | 5 (weed kill ratio 90% or more, (practically complete withering)) | – | – | – | – | – | – | – | – | – | – | –
CC1=C(c2ccccc2)C(=O)N(C(C)(C)C(=O)Nc2cccc(-c3ccccc3)n2)CO1 [B-2-60] | 4 (weed kill ratio 70% or more, less than 90%) | 3 (weed kill ratio 40% or more, less than 70%) | – | 3 (weed kill ratio 40% or more, less than 70%) | – | – | – | 5 (weed kill ratio 90% or more, (practically complete withering)) | 5 (weed kill ratio 90% or more, (practically complete withering)) | 0 (weed kill ratio 5% or less (practically no effect)) | 5 (weed kill ratio 90% or more, (practically complete withering)) | – | – | – | – | – | – | –
CC(C)(C(=O)Nc1cc(Cl)cnc1Br)N1COCN(c2ccccc2)C1=O [A-3-08] | 2 (weed kill ratio 20% or more, less than 40%) | 3 (weed kill ratio 40% or more, less than 70%) | 5 (weed kill ratio 90% or more, (practically complete withering)) | 2 (weed kill ratio 20% or more, less than 40%) | 4 (weed kill ratio 70% or more, less than 90%) | 0 (weed kill ratio 5% or less (practically no effect)) | 5 (weed kill ratio 90% or more, (practically complete withering)) | – | – | – | – | – | – | – | – | – | – | –
CC(C)(C(=O)Nc1cncc(Cl)c1)N1COCN(c2ccccc2)C1=O [A-3-02] | 2 (weed kill ratio 20% or more, less than 40%) | 5 (weed kill ratio 90% or more, (practically complete withering)) | 5 (weed kill ratio 90% or more, (practically complete withering)) | 3 (weed kill ratio 40% or more, less than 70%) | 5 (weed kill ratio 90% or more, (practically complete withering)) | 2 (weed kill ratio 20% or more, less than 40%) | 5 (weed kill ratio 90% or more, (practically complete withering)) | – | – | – | – | – | – | – | – | – | – | –
O=C1N(c2ccccc2)COCN1C1(C(=O)Nc2cc(Cl)cc(Cl)n2)CC1 [A-7-04] | – | – | – | – | – | – | – | – | – | – | – | 0 (weed kill ratio 5% or less (practically no effect)) | 1 (weed kill ratio 5% or more, less than 20%) | 0 (weed kill ratio 5% or less (practically no effect)) | 0 (weed kill ratio 5% or less (practically no effect)) | 0 (weed kill ratio 5% or less (practically no effect)) | 0 (weed kill ratio 5% or less (practically no effect)) | 5 (weed kill ratio 90% or more, (practically complete withering))
CC(C)(C(=O)Nc1cc(C#N)ccn1)N1COCN(c2ccccc2)C1=O [A-2-48] | 4 (weed kill ratio 70% or more, less than 90%) | 5 (weed kill ratio 90% or more, (practically complete withering)) | 5 (weed kill ratio 90% or more, (practically complete withering)) | 5 (weed kill ratio 90% or more, (practically complete withering)) | 5 (weed kill ratio 90% or more, (practically complete withering)) | 0 (weed kill ratio 5% or less (practically no effect)) | 5 (weed kill ratio 90% or more, (practically complete withering)) | – | – | – | – | – | – | – | – | – | – | –
